Source: patent publication US20070281992A1, “COMBINATION OF GYRASE B INHIBITORS AND PROTEIN SYNTHESIS INHIBITORS AND USES THEREOF” (priority 2006, published 2007)
Read-outs that look alike come from different tables or passages of the source.

Columns and labels:
[1] = system: Methicillin-Susceptible Staphylococcus aureus Isolates; test: MIC assay (NCCLS broth dilution), MSSA clinical isolates; assay type: cell-based
Method: (§1) Antibiotics: novobiocin, tetracycline, minocycline, oxacillin, and vancomycin were all purchased from Sigma-Aldrich. Linezolid was obtained from Pfizer, Inc. Novobiocin/tetracycline and novobiocin/minocycline were tested in a 2.5:1 ratio to mimic the serum levels. (Vavra, J. J., 1967, Development of resistance to novobiocin, tetracycline, and novobiocin-tetracycline combinations in Staphylococcus aureus populations, J. Bacteriol 93(3):801). Compounds were tested across a concentration range consisting of 11 two-fold serial dilutions of test agent.
(§2) Stock solutions were prepared in sterile deionized water; novobiocin stock concentration was 1600 μg/mL and all other drugs stock solutions were prepared at 640 μg/mL. The stock solutions were allowed to sit at room temperature for one hour to auto-sterilize prior to use in the test. All compounds were in solution in water. The control agent was vancomycin hydrochloride, Sigma Chemical Lot # 015K0825.
(§3) The test organisms for the assay were 52 MSSA, 52 MRSA, 8 VISA, 7 VISE, and 3 LRSA isolates. Quality control strains included Staphylococcus aureus 0100 (ATCC 29213) and Enterococcus faecalis (ATCC 29212).
(§4) The MIC assay was performed according to published NCCLS guidelines. (National Committee for Clinical Laboratory Standards, Methods for Dilution Antimicrobial Susceptibility Tests for Bacteria that Grow Aerobically; Approved Standard-Sixth Edition, NCCLS Document M7-A6 [ISBN 1-56238-486-4], NCCLS, 940 West Valley Road, Suite 1400, Wayne, Pa. 19087-1898 USA, 2003). The test medium was Mueller Hinton II Broth for all organisms.

[2] = system: Methicillin-Resistant Staphylococcus aureus Isolates; test: MIC assay (NCCLS broth dilution), MRSA clinical isolates; assay type: cell-based; settings: for MIC: read-out: Minimal Inhibitory Concentration
Method: as §1, §2, §3, §4

[3] = Staphylococcus aureus, 52 MSSA isolates, combinations at 2.5:1, given as NB/partner
[4] = Staphylococcus aureus, 52 MRSA isolates, combinations at 2.5:1, given as NB/partner

CO[C@@H]1[C@@H](OC(N)=O)[C@@H](O)[C@H](Oc2ccc3c(O)c(NC(=O)c4ccc(O)c(CC=C(C)C)c4)c(=O)oc3c2C)OC1(C)C [NB, novobiocin]
MIC ([1]; Staphylococcus aureus, MSSA isolate 1666, 03MAR06, read-out: Minimal Inhibitory Concentration): 0.31 mg/L
MIC ([1]; Staphylococcus aureus, MSSA isolate 1667, 03MAR06, read-out: Minimal Inhibitory Concentration): 0.15 mg/L
MIC ([1]; Staphylococcus aureus, MSSA isolate 1668, 03MAR06, read-out: Minimal Inhibitory Concentration): 0.15 mg/L
MIC ([1]; Staphylococcus aureus, MSSA isolate 1671, 03MAR06, read-out: Minimal Inhibitory Concentration): 0.15 mg/L
MIC ([1]; Staphylococcus aureus, MSSA isolate 1728, 03MAR06, read-out: Minimal Inhibitory Concentration): 10 mg/L
MIC ([1]; Staphylococcus aureus, MSSA isolate 1728, retest 09MAR06, read-out: Minimal Inhibitory Concentration): 10 mg/L
MIC ([1]; Staphylococcus aureus, MSSA isolate #1728 (novobiocin-resistant), read-out: MIC): 10 mg/L
MIC50 [1, 3]: 0.15 mg/L
MIC90 [1, 3]: 0.312 mg/L
MIC Range ([1]; the other 51 MSSA isolates (without #1728)): 0.08 to 0.62 mg/L
MIC Range ([2]; 52 MRSA isolates, combinations at 2.5:1, given as NB/partner): ≦.04-.62 μg/ml
MIC ([2]; Staphylococcus aureus, MRSA isolate 757, 24FEB06): 0.31 mg/L
MIC ([2]; Staphylococcus aureus, MRSA isolate 758, 03MAR06): 0.08 mg/L
MIC ([2]; Staphylococcus aureus, MRSA isolate 758, 24FEB06): 0.15 mg/L
MIC ([2]; Staphylococcus aureus, MRSA isolate 760, 03MAR06): 0.08 mg/L
MIC ([2]; Staphylococcus aureus, MRSA isolate 760, 24FEB06): 0.15 mg/L
MIC ([2]; Staphylococcus aureus, MRSA isolate 763, 22FEB06): 0.08 mg/L
MIC ([2]; Staphylococcus aureus, MRSA isolate 765, 22FEB06): 0.15 mg/L
MIC ([2]; Staphylococcus aureus, MRSA isolate 766, 22FEB06): 0.08 mg/L
MIC ([2]; Staphylococcus aureus, MRSA isolate 767, 22FEB06): 0.15 mg/L
MIC ([2]; Staphylococcus aureus, MRSA isolate 768, 22FEB06): 0.15 mg/L
MIC ([2]; Staphylococcus aureus, MRSA isolate 769, 22FEB06): 0.15 mg/L
MIC ([2]; Staphylococcus aureus, MRSA isolate 770, 22FEB06): ≤ 0.04 mg/L
MIC ([2]; Staphylococcus aureus, MRSA isolate 771, 22FEB06): 0.08 mg/L
MIC ([2]; Staphylococcus aureus, MRSA isolate 772, 22FEB06): 0.15 mg/L
MIC ([2]; Staphylococcus aureus, MRSA isolate 773, 24FEB06): 0.31 mg/L
MIC ([2]; Staphylococcus aureus, MRSA isolate 774, 24FEB06): 0.31 mg/L
MIC ([2]; Staphylococcus aureus, MRSA isolate 775, 24FEB06): 0.15 mg/L
MIC ([2]; Staphylococcus aureus, MRSA isolate 776, 24FEB06): 0.15 mg/L
MIC ([2]; Staphylococcus aureus, MRSA isolate 777, 24FEB06): ≤ 0.04 mg/L
MIC ([2]; Staphylococcus aureus, MRSA isolate 778, 24FEB06): ≤ 0.04 mg/L
MIC ([2]; Staphylococcus aureus, MRSA isolate 886, 24FEB06): 0.15 mg/L
MIC ([2]; Staphylococcus aureus, MRSA isolate 887, 24FEB06): 0.08 mg/L
MIC ([2]; Staphylococcus aureus, MRSA isolate 888, 24FEB06): 0.15 mg/L
MIC ([2]; Staphylococcus aureus, MRSA isolate 889, 24FEB06): 0.15 mg/L
MIC ([2]; Staphylococcus aureus, MRSA isolate 1004, 24FEB06): 0.31 mg/L
MIC ([2]; Staphylococcus aureus, MRSA isolate 1010, 22FEB06): 0.31 mg/L
MIC ([2]; Staphylococcus aureus, MRSA isolate 1012, 22FEB06): 0.31 mg/L
MIC ([2]; Staphylococcus aureus, MRSA isolate 1013, 22FEB06): 0.31 mg/L
MIC ([2]; Staphylococcus aureus, MRSA isolate 1014, 22FEB06): 0.15 mg/L
MIC ([2]; Staphylococcus aureus, MRSA isolate 1015, 22FEB06): 0.08 mg/L
MIC ([2]; Staphylococcus aureus, MRSA isolate 1016, 22FEB06): 0.31 mg/L
MIC ([2]; Staphylococcus aureus, MRSA isolate 1017, 22FEB06): 0.08 mg/L
MIC ([2]; Staphylococcus aureus, MRSA isolate 1021, 22FEB06): 0.15 mg/L
MIC ([2]; Staphylococcus aureus, MRSA isolate 1022, 22FEB06): 0.31 mg/L
MIC ([2]; Staphylococcus aureus, MRSA isolate 1023, 22FEB06): 0.15 mg/L
MIC ([2]; Staphylococcus aureus, MRSA isolate 1024, 22FEB06): 0.15 mg/L
MIC ([2]; Staphylococcus aureus, MRSA isolate 1025, 22FEB06): 0.15 mg/L
MIC ([2]; Staphylococcus aureus, MRSA isolate 1135, 22FEB06): 0.31 mg/L
MIC ([2]; Staphylococcus aureus, MRSA isolate 1136, 22FEB06): 0.31 mg/L
MIC ([2]; Staphylococcus aureus, MRSA isolate 1137, 22FEB06): 0.62 mg/L
MIC ([2]; Staphylococcus aureus, MRSA isolate 1138, 22FEB06): 0.15 mg/L
MIC ([2]; Staphylococcus aureus, MRSA isolate 1222, 03MAR06): 0.08 mg/L
MIC ([2]; Staphylococcus aureus, MRSA isolate 1222, 24FEB06): 0.08 mg/L
MIC ([2]; Staphylococcus aureus, MRSA isolate 1653, 03MAR06): ≤ 0.04 mg/L
MIC ([2]; Staphylococcus aureus, MRSA isolate 1658, 03MAR06): 0.08 mg/L
MIC ([2]; Staphylococcus aureus, MRSA isolate 1659, 03MAR06): 0.08 mg/L
MIC ([2]; Staphylococcus aureus, MRSA isolate 1661, 03MAR06): ≤ 0.04 mg/L
MIC ([2]; Staphylococcus aureus, MRSA isolate 1729, 03MAR06): 0.08 mg/L
MIC ([2]; Staphylococcus aureus, MRSA isolate 1730, 24FEB06): 0.15 mg/L
MIC ([2]; Staphylococcus aureus, MRSA isolate 2009, 24FEB06): ≤ 0.04 mg/L
MIC ([2]; Staphylococcus aureus, MRSA isolate 2010, 24FEB06): 0.15 mg/L
MIC ([2]; Staphylococcus aureus, MRSA isolate 2011, 24FEB06): 0.15 mg/L
MIC50 [2, 4]: 0.15 mg/L
MIC90 [2, 4]: 0.312 mg/L
